Assay results: patent US20140336138A1, “COMPOSITIONS AND METHODS FOR SCREENING AND TREATMENT OF STURGE-WEBER SYNDROME, KLIPPEL-TRENAUNAY-WEBER SYNDROME, AND PORT-WINE STAINS (PWSS)” (The Johns Hopkins University, priority 2013, published 2014)

How the values were obtained:
phosphorylated-ERK = assay: Western analysis of phosphorylated-ERK in 293T cells transfected with GNAQ p.R183Q, normalized to tubulin; format: cell-based, human; details: 100 nM digoxin, 42 hours, p=0.0003
Protocol: 293T cells will be transiently transfected with wildtype, GNAQ, the p.Arg183Gln, or the p.Gln209Leu mutant constructs. Fugene6 (Promega) is used for the 293T transfections (3:1 ratio Fugene6:DNA). The cells are transfected at 60-75% confluency for about an hour.
Levels of phosphorylated-ERK (rabbit monoclonal Phospho-p44/42 MAPK (Erk1/2) Cell Signaling Technology) and phosphorylated-JNK are measured by western analysis and normalized to tubulin. RGS2 and/or RGS4 levels are measured by western analysis and normalized to tubulin. Protein samples are collected from three replicates per cell type and condition. Additionally, similar experiments are performed with the p.Gln209Leu GNAQ mutants as well.

[1] = test system: cells transfected with the R183Q mutation; assay: Cell death / appearance of drug treated R183Q transfected cell cultures; format: cell-based, human; details: 100 nM digoxin
RGS2 = details: cited from earlier work
RGS4 = details: cited from earlier work

Row | SMILES | p-ERK increase (drug vs vehicle) (phosphorylated-ERK) | cell death in drug treated cell cultures ([1]; 18 hours) | cell death / growth in drug treated cells ([1]; 42 hours) | RGS2 protein levels (RGS2) | RGS4 protein levels (RGS4)
1 | C[C@H]1O[C@@H](O[C@H]2[C@@H](O)C[C@H](O[C@H]3[C@@H](O)C[C@H](O[C@H]4CC[C@@]5(C)[C@H](CC[C@@H]6[C@@H]5C[C@@H](O)[C@]5(C)[C@@H](C7=CC(=O)OC7)CC[C@]65O)C4)O[C@@H]3C)O[C@@H]2C)C[C@H](O)[C@@H]1O [digoxin] | about 3.9 fold | increased cell death | increased cell death/less growth | increase | not
2 | C[C@@H]1O[C@@H](O[C@H]2C[C@@H](O)[C@]3(CO)[C@H]4[C@H](O)C[C@]5(C)[C@@H](C6=CC(=O)OC6)CC[C@]5(O)[C@@H]4CC[C@]3(O)C2)[C@H](O)[C@H](O)[C@H]1O [ouabain] |  |  |  | increase | not
